Measurements from PMC10638507 (Acta Pharmaceutica Sinica. B, 2023).

Assays:
Type in all cases: biochemical, Paris polyphylla var. yunnanensis
UGT80A40 = assay: initial rates of glucoside formation, UPLC-MS/MS, Michaelis-Menten fit; conditions: read-out: apparent KM; 2 mmol/L UDP-glucose, 50 mmol/L Tris-HCl pH 8.0, 37 °C, 30 min
UGT80A41 = assay: as above; conditions: read-out: apparent KM; 2 mmol/L UDP-glucose, 50 mmol/L Tris-HCl pH 8.0, 37 °C, 30 min
UGT73CE1 = assay: initial rates of rhamnoside formation, UPLC-MS/MS, Michaelis-Menten fit; conditions: read-out: apparent KM; 1.5 mmol/L UDP-rhamnose, 50 mmol/L Tris-HCl pH 8.0, 37 °C, 30 min

Row | Km (UGT80A40) [µM] | Km (UGT80A41) [µM] | Km (UGT73CE1) [µM] | SMILES
1 | 6.1 ± 0.7 | 5.9 ± 0.5 | – | C[C@@H]1CC[C@@]2(OC1)O[C@H]1C[C@H]3[C@@H]4CC=C5C[C@@H](O)CC[C@]5(C)[C@H]4CC[C@]3(C)[C@H]1[C@@H]2C [compound 1, diosgenin]
2 | – | – | 7.1 ± 2.1 | C[C@@H]1CC[C@@]2(OC1)O[C@H]1C[C@H]3[C@@H]4CC=C5C[C@@H](O[C@@H]6O[C@H](CO)[C@@H](O)[C@H](O)[C@H]6O)CC[C@]5(C)[C@H]4CC[C@]3(C)[C@H]1[C@@H]2C [compound 3, trillin]
